Laboratory results reported in patent US7022736B2, “Enzyme inhibitors” (Istituto Di Ricerche Di Biologia Molecolare P Angeletti SpA, priority 1998, dated 2006).
Where two headings read alike, the source gives them in different places.

Biological target: T1, HCV RdRp (NS5B RNA-dependent RNA polymerase) (Hepatitis C virus genotype 1b, UniProt P26663)
T1 construct: The HCV NS5B protein is the viral RdRp; made in house; host or cells: insect cells infected with recombinant baculovirus
Experiment: Inhibition of hepatitis C virus RdRp (poly(A)/oligo(U), [3H]UTP incorporation)
Format: biochemical
Protocol: In initial tests, the compounds were tested to see if they were effective as inhibitors of the RNA-dependent RNA polymerase (RdRp) of hepatitis C virus (HCV). The HCV NS5B protein is the viral RdRp; compounds capable of interfering with the activity of this enzyme are thus expected to block viral replication.
Test for Inhibition of Hepatatis C Virus RdRp
WO96/37619 describes the production of recombinant HCV RdRp from insect cells infected with recombinant baculovirus encoding the enzyme. […] The reference describes a polymerisation assay using poly (A) as a template and oligo (U) as a primer. Incorporation of tritiated UTP is quantified by measuring acid-insoluble radioactivity. The present inventors have employed this assay to screen the various compounds described above as inhibitors of HCV RdRp and other virally encoded polymerases.
Incorporation of radioactive UMP was measured as follows. The standard reaction (100 μl) was carried out in a buffer containing 20 mM tris/HCl pH 7.5, 5 mM MgCl2, 1 mM DTT, 50 mM NaCl, 1 mM EDTA, 2 OU Rnasin (Promega), 0.05% Triton X-100, 1 μCi[^3H] UTP (40 Ci/mmol,NEN), 10 μM UTP and 10 μg/ml poly (A). Oligo (U)12 (1 μg/ml, Genset) was added as a primer. The final NSSB enzyme concentration was 20 nM. After 1 hour incubation at 22° C. the reaction was stopped by adding 100 μl of 20% TCA and applying samples to DE81 filters. The filters were washed thoroughly with 5% TCA containing 1M Na2HPO4/NaH2PO4, pH 7.0, rinsed with water and then ethanol, air dried, and the filter-bound radioactivity was measured in the scintillation counter. By carrying out the reaction in the presence of various concentrations of each of the compounds set out above it was possible to determine IC50 values for each compound with the formula: % residual activity=100/(1+[I]/IC50)^s where [I] is the inhibitor concentration and “s” is the slope of the inhibition curve. Test for Inhibition of Hepatitis B Virus Polymerase

[1] = Tables I-VIII, 20 nM NS5B, 1 hour at 22° C., read-out: IC 50 (μM), HCV-polymerase
[2] = Tables IXa-IXc, unit inferred, read-out: HCV (IC50)

T1 sequence (P26663 2420-3010): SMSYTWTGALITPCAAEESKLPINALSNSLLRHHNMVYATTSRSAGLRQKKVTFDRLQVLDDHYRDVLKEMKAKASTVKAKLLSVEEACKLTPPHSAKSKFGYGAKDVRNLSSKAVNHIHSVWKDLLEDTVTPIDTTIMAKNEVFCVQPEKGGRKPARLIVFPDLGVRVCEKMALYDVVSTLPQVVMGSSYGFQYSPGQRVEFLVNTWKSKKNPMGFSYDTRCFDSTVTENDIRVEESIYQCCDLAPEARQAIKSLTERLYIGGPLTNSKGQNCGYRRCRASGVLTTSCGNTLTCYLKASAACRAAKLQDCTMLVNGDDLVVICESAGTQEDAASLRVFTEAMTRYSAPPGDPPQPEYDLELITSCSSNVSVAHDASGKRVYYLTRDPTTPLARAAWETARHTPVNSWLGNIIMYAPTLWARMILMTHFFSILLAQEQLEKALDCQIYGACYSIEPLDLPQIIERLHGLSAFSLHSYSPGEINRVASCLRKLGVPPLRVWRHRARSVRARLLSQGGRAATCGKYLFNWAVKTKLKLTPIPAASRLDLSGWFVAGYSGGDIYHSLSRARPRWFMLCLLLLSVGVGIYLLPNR

| Structure (SMILES) | IC50 [1] | IC50 [2] |
| --- | --- | --- |
| O=C(O)C(O)=CC(=O)c1cccc(-c2ccccc2)c1 [Example 3] | 27.9 µM | – |
| C=CCOc1cccc(C(=O)C=C(O)C(=O)O)c1 [Example 5] | 17 µM | – |
| O=C(O)C(O)=CC(=O)c1ccccc1C(F)(F)F [Example 6] | 18 µM | – |
| O=C(O)C(O)=CC(=O)c1ccccc1OCC1CCCCC1 [Example 9] | 51 µM | – |
| O=C(O)C(O)=CC(=O)c1cccc(OCC2CCCCC2)c1 [Example 10] | 20 µM | – |
| O=C(O)C(O)=CC(=O)c1cccc(NCc2ccccc2)c1 [Example 12] | 16.7 µM | – |
| O=C(O)COc1cccc(C(=O)C=C(O)C(=O)O)c1 [Example 14] | 26 µM | – |
| O=C(O)C(O)=CC(=O)c1cccc(N2CCCC2)c1 [Example 15] | 83.5 µM | – |
| COc1ccccc1C(=O)C=C(O)C(=O)O [Example 17] | 11.6 µM | – |
| O=C(O)C(O)=CC(=O)c1cccc(OCCCCn2c(C(F)(F)F)nc3ccccc32)c1 [Example 22] | 19 µM | – |
| N#Cc1ccc(COc2ccccc2C(=O)C=C(O)C(=O)O)cc1 [Example 25] | 28 µM | – |
| N#Cc1cccc(COc2ccccc2C(=O)C=C(O)C(=O)O)c1 [Example 26] | 26 µM | – |
| CCCCCCOc1cccc(C(=O)C=C(O)C(=O)O)c1 [Example 30] | 15 µM | – |
| CCCCCCCOc1ccccc1C(=O)C=C(O)C(=O)O [Example 31] | 18 µM | – |
| O=C(O)C(O)=CC(=O)c1ccccc1SC1CCCCC1 [Example 33] | 18.2 µM | – |
| O=C(O)C(O)=CC(=O)c1ccccc1Oc1ccc(F)cc1 [Example 37] | 18 µM | – |
| O=C(O)C(O)=CC(=O)c1ccccc1Oc1ccc(Cl)cc1 [Example 38] | 16 µM | – |
| Cc1ccc(Oc2ccccc2C(=O)C=C(O)C(=O)O)cc1 [Example 39] | 22 µM | – |
| O=C(O)C(O)=CC(=O)c1cccc(N(Cc2ccccc2)Cc2ccccc2)c1 [Example 41] | 28.9 µM | – |
| O=C(O)C(O)=CC(=O)c1ccccc1N(Cc1ccccc1)Cc1ccccc1 [Example 42] | 16.6 µM | – |
| O=C(O)C(O)=CC(=O)c1cccc(Cc2cccc(Cl)c2)c1 [Example 43] | 20 µM | – |
| O=C(O)C(O)=CC(=O)c1cccc(Oc2ccccc2)c1 [Example 44] | 18.5 µM | – |

| Structure (SMILES) | IC50 [1] | IC50 [2] |
| --- | --- | --- |
| O=C(O)C(O)=CC(=O)c1cccc(Cc2ccc(Cl)cc2)c1 [Example 45] | 12.9 µM | – |
| O=C(O)C(O)=CC(=O)c1cccc(Cc2ccc(F)cc2)c1 [Example 46] | 30.1 µM | – |
| O=C(O)C(O)=CC(=O)c1cccc(C2=CCCc3ccccc32)c1 [Example 47] | 20.7 µM | – |
| O=C(O)C(O)=CC(=O)c1cccc(Cc2cccc(Br)c2)c1 [Example 48] | 22 µM | – |
| O=C(O)C(O)=CC(=O)c1cccc(Cc2cc(Br)cc(Br)c2)c1 [Example 49] | 32 µM | 32 µM |
| O=C(O)C(O)=CC(=O)c1ccccc1/C=C/c1ccccc1 [Example 55] | 10.8 µM | – |
| N#CCCCOc1ccc(C#CCCCCl)cc1C(=O)C=C(O)C(=O)O [Example 56] | 23.6 µM | – |
| N#CCCCOc1ccc(-c2ccccc2)cc1C(=O)C=C(O)C(=O)O [Example 58] | 13.6 µM | – |
| CCCCCOc1ccccc1C(=O)C=C(O)C(=O)O [Example 59] | 25.3 µM | – |
| COc1cccc(C(=O)C=C(O)C(=O)O)c1 [Example 60] | 40 µM | – |
| CC(C)(C)OC(=O)Nc1cccc(C(=O)C=C(O)C(=O)O)c1 [Example 61] | 31 µM | – |
| N#Cc1ccccc1COc1ccccc1C(=O)C=C(O)C(=O)O [Example 65] | 45 µM | – |
| O=C(O)C(O)=CC(=O)c1cccc(NC(=O)c2ccccc2)c1 [Example 66] | 11 µM | 11 µM |
| O=C(O)C(O)=CC(=O)c1cccc(NS(=O)(=O)c2ccccc2)c1 [Example 67] | 16 µM | – |
| N#Cc1ccc(C(=O)Nc2cccc(C(=O)C=C(O)C(=O)O)c2)cc1 [Example 68] | 30 µM | – |
| N#CC(CCOc1ccccc1C(=O)C=C(O)C(=O)O)(c1ccccc1)c1ccccc1 [Example 69] | 14 µM | – |
| O=C(O)C(O)=CC(=O)c1cccc(OCc2cccnc2)c1 [Example 71] | 10.6 µM | – |
| CS(=O)(=O)Nc1cccc(C(=O)C=C(O)C(=O)O)c1 [Example 75] | 19.2 µM | – |
| CC(C)(C)OC(=O)c1sccc1COc1cccc(C(=O)C=C(O)C(=O)O)c1 [Example 82] | 19 µM | – |
| O=C(O)C(O)=CC(=O)c1cccc(NC(=O)c2ccccc2Cl)c1 [Example 85] | 13 µM | – |
| O=C(O)C(O)=CC(=O)c1cccc(OCc2ccc(-c3ccccc3)cc2)c1 [Example 96] | 50 µM | – |

The next compounds have a lower IC50 [1] than those just listed; values first:

| IC50 [1] | IC50 [2] | Structure (SMILES) |
| --- | --- | --- |
| 10 µM | – | CCCCOc1ccccc1C(=O)C=C(O)C(=O)O [Example 52] |
| 10 µM | – | Nc1cccc(C(=O)C=C(O)C(=O)O)c1 [Example 62] |
| 9.6 µM | – | CCCSc1ccccc1C(=O)C=C(O)C(=O)O [Example 34] |
| 9.4 µM | – | O=C(O)C(O)=CC(=O)c1cccc(OC/C=C/c2ccccc2)c1 [Example 83] |
| 9.2 µM | – | N#Cc1cccc(C(=O)Nc2cccc(C(=O)C=C(O)C(=O)O)c2)c1 [Example 70] |
| 7.8 µM | – | O=C(O)C(O)=CC(=O)c1cccc(OCc2ccc(C(=O)O)cc2Cl)c1 [Example 100] |
| 7.08 µM | – | O=C(O)C(O)=CC(=O)c1cccc(OC2CCCCC2)c1 [Example 11] |
| 6.2 µM | – | N#Cc1cccc(COc2cccc(C(=O)C=C(O)C(=O)O)c2)c1 [Example 28] |
| 6.2 µM | – | Cc1ccccc1COc1cccc(C(=O)C=C(O)C(=O)O)c1 [Example 91] |
| 6.1 µM | – | CC(C)COc1ccccc1C(=O)C=C(O)C(=O)O [Example 32] |
| 6.1 µM | – | N#CCCCOc1ccc(OCCCC#N)c(C(=O)C=C(O)C(=O)O)c1 [Example 35] |
| 6 µM | – | O=C(O)C(O)=CC(=O)c1cccc(NCc2cccc(C(=O)O)c2)c1 [Example 79] |
| 5.8 µM | – | O=C(O)C(O)=CC(=O)c1cccc(OCc2cccc(F)c2)c1 [Example 94] |
| 5.6 µM | – | O=C(O)C(O)=CC(=O)c1cccc(OCc2ccccn2)c1 [Example 73] |
| 4.8 µM | – | O=C(O)C(O)=CC(=O)c1cccc(NS(=O)(=O)c2ccccc2Br)c1 [Example 77] |
| 3.9 µM | – | CCCOc1ccccc1C(=O)C=C(O)C(=O)O [Example 29] |
| 3.6 µM | – | N#Cc1ccc(S(=O)(=O)Nc2cccc(C(=O)C=C(O)C(=O)O)c2)cc1 [Example 74] |
| 3.3 µM | – | O=C(O)C(O)=CC(=O)c1cccc(OCc2ccccc2Br)c1 [Example 89] |
| 3 µM | – | Cc1ccccc1C(=O)C=C(O)C(=O)O [Example 2] |

| IC50 [1] | IC50 [2] | Structure (SMILES) |
| --- | --- | --- |
| 3 µM | 3 µM | O=C(Nc1ccccc1)Nc1cccc(C(=O)C=C(O)C(=O)O)c1 [Example 80] |
| 2.8 µM | – | O=C(O)C(O)=CC(=O)c1cccc(OCc2ccccc2-c2ccccc2)c1 [Example 97] |
| 2.6 µM | – | N#CCCCOc1cccc(C(=O)C=C(O)C(=O)O)c1 [Example 13] |
| 2.3 µM | – | N#CCCCOc1ccc(Br)cc1C(=O)C=C(O)C(=O)O [Example 54] |
| 2.3 µM | – | O=C(O)C(O)=CC(=O)c1cccc(OCc2ccc(F)cc2Cl)c1 [Example 87] |
| 2.1 µM | – | N#CCCCOc1ccc(/C=C/c2ccccc2)cc1C(=O)C=C(O)C(=O)O [Example 57] |
| 2.05 µM | – | Cc1cccc(COc2cccc(C(=O)C=C(O)C(=O)O)c2)c1F [Example 86] |
| 1.9 µM | – | C#CCCCOc1ccccc1C(=O)C=C(O)C(=O)O [Example 51] |
| 1.9 µM | – | O=C(O)C(O)=CC(=O)c1cccc(OCc2cccc(C(F)(F)F)c2)c1 [Example 93] |
| 1.8 µM | 1.8 µM | O=C(O)C(O)=CC(=O)c1cccc(OCc2ccccc2C(=O)O)c1 [Example 90] |
| 1.7 µM | – | N#CCCCOc1ccc(N)cc1C(=O)C=C(O)C(=O)O [Example 63] |
| 1.4 µM | – | O=C(Nc1cccc(C(=O)C=C(O)C(=O)O)c1)OCc1ccccc1 [Example 81] |
| 1 µM | – | COc1cccc(COc2cccc(C(=O)C=C(O)C(=O)O)c2)c1 [Example 92] |
| 1 µM | – | O=C(O)C(O)=CC(=O)c1cccc(OCc2cc(C(=O)O)ccc2Cl)c1 [Example 98] |
| 0.95 µM | 0.95 µM | O=C(O)C(O)=CC(=O)c1cccc(OCc2ccsc2C(=O)O)c1 [Example 84] |
| 0.7 µM | 0.7 µM | O=C(O)C(O)=CC(=O)c1cccc(NS(=O)(=O)c2cc(Cl)ccc2Cl)c1 [Example 88] |
| 0.48 µM | 0.48 µM | N#Cc1ccccc1S(=O)(=O)Nc1cccc(C(=O)C=C(O)C(=O)O)c1 [Example 72] |
| 0.48 µM | – | O=C(O)C(O)=CC(=O)c1cccc(NS(=O)(=O)c2cc(Cl)sc2Cl)c1 [Example 95] |
| 0.23 µM | 0.23 µM | N#Cc1ccccc1COc1cccc(C(=O)C=C(O)C(=O)O)c1 [Example 64] |
